The values that follow are results of earlier work, collected in patent US10646532B2, “Method for preparing water extract of ashwagandha leaves which has enhanced anti-cancer activity utilizing cyclodextrin, and pharmaceutical composition containing ashwagandha leaves” (National Institute of Advanced Industrial Science and …, priority 2014, dated 2020).

The data set relates to cancer cells / normal cells. The settings on record: in vitro test, background art.

Turning to `CC1=C(C)C(=O)OC([C@@H](C)C2(O)CC[C@H]3[C@@H]4[C@@H]5O[C@@H]5C5(O)CC=CC(=O)[C@]5(C)[C@H]4CC[C@@]32C)C1` (stereo partly shown) [withanone], the “cytotoxicity to cancer cells versus normal cells” value is given as “selective cytotoxicity to cancer cells”.
